In patent US20260176279A1, “DUAL RAF AND TUBULIN INHIBITORS AND METHODS OF USE THEREOF” (Deciphera Pharmaceuticals, LLC, priority 2023, published 2026):
pIC50: −log10 of the molar value. Read-outs that look alike come from different tables or passages of the source.

Key:
B-Raf kinase = target: T1, B-Raf kinase (Homo sapiens, UniProt P15056); assay: Biochemical Assay for B-Raf (coupled pyruvate kinase/lactate dehydrogenase assay); details: Table 1, inhibition of biochemical activity; read-out: BRAF
T1 construct: GST (N); purchased Sigma

C-Raf kinase = target: T2, C-Raf kinase (Homo sapiens, UniProt P04049, Y340D/Y341D); assay: Biochemical Assay for C-Raf (coupled pyruvate kinase/lactate dehydrogenase assay); details: Table 1, inhibition of biochemical activity; read-out: CRAF
T2 construct: C-Raf residues 306-end; Y340D, Y341D with N-; GST (N); purchased Eurofins

MiaPaca-2 cells = assay: MiaPaca-2 Cell Proliferation Assay; format: cell-based; details: Homo sapiens, MIA PaCa-2; Table 2, inhibition of cell proliferation; read-out: MiaPaca-2
Experimental: MiaPaca-2 cells (catalog #CRL-1420) are obtained from the American Type Culture Collect (ATTC, Manassas, VA). Briefly, cells were grown in DMEM supplemented with 10% characterized fetal bovine serum (Invitrogen, Carlsbad, CA), 2.5% New Zealand sourced horse serum and 1% Penicillin/Streptomycin/L-Glutamine at 37° C., 5% CO2, and 95% humidity. Cells are expanded until reaching 70-95% confluency at which point they are sub-cultured or harvested for assay use. For assays completed in 96-well plates, a serial dilution of test compound is dispensed into a 96-well black clear bottom plate in triplicate. Three thousand cells are added per well in 200 μL complete growth medium in the 96-well plate. Plates are incubated for 67 to 72 h at 37° C., 5% CO2, and 95% humidity. At the end of the incubation, 40 μL of a […] solution of resazurin (Sigma, St. Louis, MO) in PBS is added to each well of the plate and plates are incubated for an additional 5 to 6 hours at 37° C., 5% CO2, and 95% humidity. For 384-well assays, a threefold, 8-point serial dilution of compound was spotted column wise into a 384 well black, clear bottom, tissue culture treated plate using the Beckman Coulter Echo 650. Likewise, a threefold, 8-point serial dilution of cobimetinib was spotted row wise into the 384 well black, clear bottom plate containing compound. DMSO concentration was constant across all wells at 0.4%. Seven hundred fifty cells are added per well in 50 μL complete growth medium in each 384-well plate. Plates are incubated for 67 to 72 h at 37° C., 5% CO2, and 95% humidity. At the end of the incubation, 10 μL of a 440 μM solution of resazurin (Sigma, St. Louis, MO) in PBS is added to each well of the plate and plates are incubated for an additional 4 to 6 h at 37° C., 5% CO2, and 95% humidity. Plates are read on a Synergy2 or equivalent reader (Biotek, Winooski VT) using an excitation of 540 nm and an emission of 600 nm. Data is analyzed using Prism software (Graphpad, San Diego, CA) to calculate IC50 values.

HCT-116 cells = assay: HCT-116 Cell Proliferation Assay; format: cell-based; details: Homo sapiens
Experimental: HCT-116 cells (catalog #CCL-247) are obtained from the American Type Culture Collect (ATCC, Manassas, VA). Briefly, cells are grown in McCoy's 5A supplemented with 10% characterized fetal bovine serum (Invitrogen, Carlsbad, CA) and 1% Penicillin/Streptomycin/L-Glutamine at 37° C., 5% CO2, and 95% humidity. Cells are expanded until reaching 70-95% confluency at which point they are sub-cultured or harvested for assay use. A serial dilution of test compound is dispensed into a 384-well black clear bottom plate in triplicate. 375 cells are added per well in 50 μL complete growth medium in the 384-well plate. Plates are incubated for 67 to 72 h at 37° C., 5% CO2, and 95% humidity. At the end of the incubation, 40 μL of a […] solution of resazurin (Sigma, St. Louis, MO) in PBS is added to each well of the plate and plates are incubated for an additional 4 to 5 hours at 37° C., 5% CO2, and 95% humidity. Plates are read on a Synergy2 or equivalent reader (Biotek, Winooski, VT) using an excitation of 540 nm and an emission of 600 nm. Data is analyzed using Prism software (Graphpad, San Diego, CA) to calculate IC50 values.

HPAF-II cells = assay: HPAF-II Cell Proliferation Assay; format: cell-based; details: Homo sapiens, HPAF-II; Table 4; read-out: HPAF-II IC50
Experimental: HPAF-II cells (catalog #CRL-1997) are obtained from the American Type Culture Collect (ATCC, Manassas, VA). Briefly, cells are grown in Minimum Essential Media supplemented with 10% characterized fetal bovine serum (Invitrogen, Carlsbad, CA) and 1% Penicillin/Streptomycin/L-Glutamine at 37° C., 5% CO2, and 95% humidity. Cells are expanded until reaching 70-95% confluency at which point they are sub-cultured or harvested for assay use. A serial dilution of test compound is dispensed into a 384-well black clear bottom plate in triplicate. 750 cells are added per well in 50 μL complete growth medium in the 384-well plate. Plates are incubated for 115 to 120 h at 37° C., 5% CO2, and 95% humidity. At the end of the incubation, 40 μL of a […] solution of resazurin (Sigma, St. Louis, MO) in PBS is added to each well of the plate and plates are incubated for an additional 18 to 24 h at 37° C., 5% CO2, and 95% humidity. Plates are read on a Synergy2 or equivalent reader (Biotek, Winooski, VT) using an excitation of 540 nm and an emission of 600 nm. Data is analyzed using Prism software (Graphpad, San Diego, CA) to calculate IC50 values.

[1] = Table 2, inhibition of cell proliferation, read-out: HCT-116

T1 sequence (P15056 416-766): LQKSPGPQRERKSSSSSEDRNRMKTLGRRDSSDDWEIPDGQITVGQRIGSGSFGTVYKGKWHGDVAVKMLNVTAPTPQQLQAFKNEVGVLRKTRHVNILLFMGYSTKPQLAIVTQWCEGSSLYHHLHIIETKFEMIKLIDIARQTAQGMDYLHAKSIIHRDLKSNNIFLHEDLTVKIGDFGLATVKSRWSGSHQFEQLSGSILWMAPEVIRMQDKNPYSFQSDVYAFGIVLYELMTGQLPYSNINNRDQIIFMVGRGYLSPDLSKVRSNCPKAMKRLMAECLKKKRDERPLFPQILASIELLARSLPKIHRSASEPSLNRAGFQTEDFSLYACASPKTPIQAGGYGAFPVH
T2 sequence (P04049 307-648 Y340D/Y341D): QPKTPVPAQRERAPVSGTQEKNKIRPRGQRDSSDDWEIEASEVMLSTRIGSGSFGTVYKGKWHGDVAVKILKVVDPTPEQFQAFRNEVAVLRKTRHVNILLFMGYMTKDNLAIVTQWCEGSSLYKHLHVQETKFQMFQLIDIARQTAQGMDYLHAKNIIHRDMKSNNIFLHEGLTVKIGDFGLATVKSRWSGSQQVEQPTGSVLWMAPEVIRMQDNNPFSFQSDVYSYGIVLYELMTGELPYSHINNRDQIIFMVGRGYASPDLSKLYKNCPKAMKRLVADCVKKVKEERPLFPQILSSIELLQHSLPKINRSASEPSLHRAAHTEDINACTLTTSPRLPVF

Structure (SMILES) | pIC50 (B-Raf kinase) | pIC50 (C-Raf kinase) | pIC50 (MiaPaca-2 cells) | pIC50 (HCT-116 cells; [1]) | pIC50 (HCT-116 cells; HCT-116, Table 4, read-out: HCT-116 IC50) | pIC50 (HPAF-II cells)
Cc1ccc(NC(=O)Nc2ccc(C(F)(F)F)nc2)cc1-c1cc(OC2CCNCC2)nc(N2CCOCC2)c1 [Example 25, 1-(4-methyl-3-(2-morpholino-6-(piperidin-4-yloxy)pyridin-4-yl)phenyl)-3-(6-(trifluoromethyl)pyridin-3-yl)urea] | 6.30 to 7.00 | > 7.00 | 6.30 to 7.00 | 6.00 to 6.30 | – | –
Cc1ncc(NC(=O)Nc2ccc(C(F)(F)F)nc2)cc1-c1cc(OCCO)nc(N2CCOCC2)c1 [Example 26] | 5.00 to 6.00 | > 7.00 | > 7.00 | – | – | –
Cc1cc(F)c(NC(=O)Nc2ccc(C(F)(F)F)nc2)cc1-c1cc(OCCN(C)C)nc(N2CCOCC2)c1 [Example 27] | 6.00 to 6.30 | 6.30 to 7.00 | 5.00 to 6.00 | – | – | –
Cc1ccc(NC(=O)Nc2cccnc2)cc1-c1cc(OCCO)nc(N2CCOCC2)c1 [Example 28] | 6.00 to 6.30 | > 7.00 | 6.30 to 7.00 | 5.00 to 6.00 | – | –
Cc1ccc(NC(=O)Nc2ccc(C(F)(F)F)nc2)cc1-c1cc(-c2cnn(C)c2)nc(N2CCOCC2)c1 [Example 29] | > 7.00 | > 7.00 | > 7.00 | – | – | –
Cc1ccc(NC(=O)Nc2ccc(C(F)(F)F)nc2)cc1-c1cc(OCCN(C)C)nc(N2CCOCC2)c1 [Example 30] | 6.30 to 7.00 | > 7.00 | > 7.00 | – | – | –
Cc1ccc(NC(=O)Nc2ccc(C(F)(F)F)nc2)cc1-c1cc(N2CCOCC2)nc(N2CCN(C)CC2)c1 [Example 31] | 6.00 to 6.30 | 6.30 to 7.00 | 6.30 to 7.00 | – | – | –
Cc1ccc(NC(=O)Nc2ccc(C(F)(F)F)nc2)cc1-c1cc(N2CCOCC2)nc(N2CCOCC2)c1 [Example 32] | > 7.00 | > 7.00 | > 7.00 | – | – | –
Cc1ccc(NC(=O)Nc2ccc(C(F)(F)F)nc2)cc1-c1cc(OCC2COC2)nc(N2CCOCC2)c1 [Example 33] | 6.30 to 7.00 | > 7.00 | > 7.00 | – | – | –
Cc1ccc(NC(=O)Nc2ccc(C(F)(F)F)nc2)cc1-c1cc(F)nc(N2CCOCC2)c1 [Example 35] | 5.00 to 6.00 | 5.00 to 6.00 | – | – | – | –
Cc1ccc(NC(=O)Nc2ccc(C(F)(F)F)nc2)cc1-c1cc(OCCO)nc(N2CCOCC2)c1 [Example 37] | 6.30 to 7.00 | > 7.00 | > 7.00 | > 7.00 | – | –
Cc1ccc(NC(=O)Nc2ccc(C(F)F)nc2)cc1-c1cc(OCCO)nc(N2CCOCC2)c1 [Example 38] | – | – | > 7.00 | – | – | –
Cc1ccc(NC(=O)Nc2ccc(C(F)(F)F)nc2)cc1-c1cc(OCCO)nc(-c2cn[nH]c2)c1 [Example 42] | > 7.00 | > 7.00 | > 7.00 | – | – | –
CC(=O)Nc1cc(-c2cc(-c3cc(NC(=O)NC4CCC(F)(F)CC4)c(F)cc3C)cc(OCCO)n2)ccn1 [reference compound] | – | – | – | – | 6.00 to 6.30 | 6.00 to 6.30
